Source: patent US20040132707A1, “Catecholate beta-lactam conjugates, method for producing the same and the use thereof” (Gruenenthal GmbH, priority 2001, published 2004)
Converted amounts (≈) assume the structure as drawn.

Assays:
Test in all cases: Microdilution MIC assay (NCCLS M7-A)
Format in all cases: cell-based
[1] = tested on: Pseudomonas aeruginosa SG 137; conditions: strain SG137
Description: (§1) The antibacterial activity was tested by a microdilution assay according to National Committee for Clinical Laboratory Standards, 1998, Methods for dilution antimicrobial susceptibility tests for bacteria that grow aerobically, Approved standard M7-A, NCCLS, Villanova, Pa.
(§2) The minimal inhibition concentrations (MICs) were determined for the following bacterial strains: The Gram-negative strains Pseudomonas aeruginosa SG 137, ATCC 27853, Escherichia coli ATCC 25922, Klebsiella pneumoniae ATCC 10031, Stenotrophomonas maltophilia GN 12873, Serratia marcescens SG 621 as well as for the Gram-positive strain Staphylococcus aureus SG 511.

[2] = tested on: Klebsiella pneumoniae ATCC 10031; conditions: strain ATCC10031
Description: as §1, §2

[3] = tested on: Staphylococcus aureus SG 511; conditions: strain SG511
Description: as §1, §2

[4] = tested on: Stenotrophomonas maltophilia GN 12873; conditions: strain GN12873
Description: as §1, §2

[5] = tested on: Pseudomonas aeruginosa ATCC 27853; conditions: strain ATCC 27853
Description: as §1, §2

[6] = tested on: Serratia marcescens SG 621; conditions: strain SG621
Description: as §1, §2

[7] = tested on: Escherichia coli ATCC 25922; conditions: strain ATCC 25922
Description: as §1, §2

Row | SMILES | MIC Pseudomonas aeruginosa SG137 [1] | MIC Klebsiella pneumoniae ATCC10031 [2] | MIC Staph. aureus SG511 [3] | MIC Stenotroph. maltoph. GN12873 [4] | MIC Pseudomonas aeruginosa ATCC 27853 [5] | MIC Serratia marc. SG621 [6] | MIC E. coli ATCC 25922 [7]
1 | CC(=O)Oc1cccc(C(=O)NCCN(CCNC(=O)c2cccc(OC(C)=O)c2OC(C)=O)CCN(Cc2ccc(C(=O)NC(C(=O)NC3C(=O)N4C3SC(C)(C)C4C(=O)O)c3ccccc3)cc2)C(=O)c2cccc(OC(C)=O)c2OC(C)=O)c1OC(C)=O (centres unmarked) [Example 15] | <0.05 µg/mL | 0.1 µg/mL (≈ 0.0786 µM) | 0.78 µg/mL (≈ 0.613 µM) | <0.05 µg/mL | 0.2 µg/mL (≈ 0.157 µM) | 0.4 µg/mL (≈ 0.314 µM) | 0.78 µg/mL (≈ 0.613 µM)
2 | COC(=O)Oc1cccc(C(=O)N(C)CCCN(Cc2ccc(C(=O)NC(C(=O)NC3C(=O)N4C3SC(C)(C)C4C(=O)O)c3ccccc3)cc2)C(=O)c2cccc(OC(=O)OC)c2OC(=O)OC)c1OC(=O)OC (centres unmarked) [Example 16, N-{4-[2,6-bis-(2,3-di-methoxycarbonyloxybenzoyl)-2,6-diaza-heptyl]-benzoyl}-ampicillin] | <0.05 µg/mL | 0.1 µg/mL (≈ 0.0945 µM) | 1.56 µg/mL (≈ 1.47 µM) | <0.05 µg/mL | 0.78 µg/mL (≈ 0.737 µM) | 1.56 µg/mL (≈ 1.47 µM) | 0.4 µg/mL (≈ 0.378 µM)
3 | CC(=O)Oc1cccc(C(=O)NCCCCN(Cc2ccc(OCC(=O)NC(C(=O)NC3C(=O)N4C3SC(C)(C)C4C(=O)O)c3ccccc3)cc2)C(=O)c2cccc(OC(C)=O)c2OC(C)=O)c1OC(C)=O (centres unmarked) [Example 17, N-{4-[2,7-Bis-(2,3-diacetoxybenzoyl)-2,7-diaza-heptyl]-phenoxyacetyl}-ampicillin] | 0.2 µg/mL (≈ 0.195 µM) | <0.05 µg/mL | 1.56 µg/mL (≈ 1.52 µM) | 0.2 µg/mL (≈ 0.195 µM) | 6.25 µg/mL (≈ 6.1 µM) | 6.25 µg/mL (≈ 6.1 µM) | 0.78 µg/mL (≈ 0.762 µM)
4 | CC(=O)Oc1cccc(C(=O)NCCCCN(Cc2ccccc2C(=O)NC(C(=O)NC2C(=O)N3C2SC(C)(C)C3C(=O)O)c2ccccc2)C(=O)c2cccc(OC(C)=O)c2OC(C)=O)c1OC(C)=O (centres unmarked) [Example 18, N-{2-[2,7-Bis-(2,3-diacetoxybenzoyl)-2,7-diaza-heptyl]-benzooyl}-ampicillin] | 0.04 µg/mL (≈ 0.0402 µM) | <0.05 µg/mL | 6.25 µg/mL (≈ 6.29 µM) | <0.05 µg/mL | 0.2 µg/mL (≈ 0.201 µM) | 0.24 µg/mL (≈ 0.241 µM) | 0.4 µg/mL (≈ 0.402 µM)
5 | CC(=O)Oc1cccc(C(=O)N(C)CCCN(Cc2ccccc2C(=O)N[C@@H](C(=O)N[C@@H]2C(=O)N3[C@@H]2SC(C)(C)[C@@H]3C(=O)O)c2ccccc2)C(=O)c2cccc(OC(C)=O)c2OC(C)=O)c1OC(C)=O [Example 19, N-{2-[2,6-Bis-(2,3-diacetoxybenzoyl)-2,6-diaza-heptyl]-benzoyl}-ampicillin] | 0.1 µg/mL (≈ 0.101 µM) | 0.1 µg/mL (≈ 0.101 µM) | 1.56 µg/mL (≈ 1.57 µM) | 0.2 µg/mL (≈ 0.201 µM) | 3.12 µg/mL (≈ 3.14 µM) | 0.78 µg/mL (≈ 0.785 µM) | 0.78 µg/mL (≈ 0.785 µM)
6 | CC(=O)Oc1cccc(C(=O)NCCCN(CCN(CCCN(Cc2ccc(C(=O)N[C@@H](C(=O)N[C@@H]3C(=O)N4[C@@H]3SC(C)(C)[C@@H]4C(=O)O)c3ccccc3)cc2)C(=O)c2cccc(OC(C)=O)c2OC(C)=O)C(=O)c2cccc(OC(C)=O)c2OC(C)=O)C(=O)c2cccc(OC(C)=O)c2OC(C)=O)c1OC(C)=O [Example 20, N-{4-[2,6,9,13-Tetrakis-(2,3-diacetoxybenzoyl)-2,6,9,13-tetraaza-tridecyl]-benzoyl}-ampicillin] | 0.4 µg/mL (≈ 0.263 µM) | 0.78 µg/mL (≈ 0.513 µM) | 6.25 µg/mL (≈ 4.11 µM) | 0.2 µg/mL (≈ 0.132 µM) | 1.56 µg/mL (≈ 1.03 µM) | 1.56 µg/mL (≈ 1.03 µM) | 1.56 µg/mL (≈ 1.03 µM)
7 | COc1ccc(CN(CCCCNC(=O)c2cccc(OC(C)=O)c2OC(C)=O)C(=O)c2cccc(OC(C)=O)c2OC(C)=O)c(C(=O)N[C@@H](C(=O)N[C@@H]2C(=O)N3[C@@H]2SC(C)(C)[C@@H]3C(=O)O)c2ccccc2)c1OC [Example 21, N-{6-[2,7-Bis-(2,3-Diacetoxybenzoyl)-2,7-diaza-heptyl]-2,3-dimethoxy-benzoyl}-ampicillin] | 0.78 µg/mL (≈ 0.74 µM) | 0.4 µg/mL (≈ 0.379 µM) | 0.2 µg/mL (≈ 0.19 µM) | 0.2 µg/mL (≈ 0.19 µM) | 12.5 µg/mL (≈ 11.9 µM) | 1.56 µg/mL (≈ 1.48 µM) | 3.12 µg/mL (≈ 2.96 µM)
8 | COC(=O)Oc1cccc(C(=O)N(C)CCCN(Cc2ccccc2C(=O)N[C@@H](C(=O)N[C@@H]2C(=O)N3[C@@H]2SC(C)(C)[C@@H]3C(=O)O)c2ccccc2)C(=O)c2cccc(OC(=O)OC)c2OC(=O)OC)c1OC(=O)OC [Example 22, N-{2-[2,6-Bis-(2,3-di-methoxycarbonyloxy-benzoyl)-2,6-diaza-heptyl]-benzoyl}-ampicillin] | 0.2 µg/mL (≈ 0.189 µM) | 0.4 µg/mL (≈ 0.378 µM) | 6.25 µg/mL (≈ 5.91 µM) | <0.05 µg/mL | 0.4 µg/mL (≈ 0.378 µM) | 0.78 µg/mL (≈ 0.737 µM) | 1.56 µg/mL (≈ 1.47 µM)
9 | CC(=O)Oc1cccc(C(=O)NCCCN(CCCN(Cc2ccccc2C(=O)N[C@@H](C(=O)N[C@@H]2C(=O)N3[C@@H]2SC(C)(C)[C@@H]3C(=O)O)c2ccccc2)C(=O)c2cccc(OC(C)=O)c2OC(C)=O)C(=O)c2cccc(OC(C)=O)c2OC(C)=O)c1OC(C)=O [Example 23, N-{2-[2,6,10-Tris-(2,3-diacetoxybenzoyl)-2,6,10-triaza-decyl]-benzoyl}-ampicillin] | 0.78 µg/mL (≈ 0.62 µM) | 0.78 µg/mL (≈ 0.62 µM) | 12.5 µg/mL (≈ 9.94 µM) | 0.2 µg/mL (≈ 0.159 µM) | 1.56 µg/mL (≈ 1.24 µM) | 3.12 µg/mL (≈ 2.48 µM) | 6.25 µg/mL (≈ 4.97 µM)
10 | CC(=O)Oc1cccc(C(=O)NCCCN(CC(=O)NC(C(=O)NC2C(=O)N3C2SC(C)(C)C3C(=O)O)c2ccccc2)C(=O)c2cccc(OC(C)=O)c2OC(C)=O)c1OC(C)=O (centres unmarked) [Example 24, N-[3,7-Bis-(2,3-diacetoxybenzoyl)-3,7-diaza-heptanoyl]-ampicillin] | 3.12 µg/mL (≈ 3.45 µM) | 0.2 µg/mL (≈ 0.221 µM) | 3.12 µg/mL (≈ 3.45 µM) | 0.2 µg/mL (≈ 0.221 µM) | 3.12 µg/mL (≈ 3.45 µM) | 0.78 µg/mL (≈ 0.863 µM) | 3.12 µg/mL (≈ 3.45 µM)
11 | CC(=O)Oc1cccc(C(=O)NCCCCCN(CC(=O)NC(C(=O)NC2C(=O)N3C2SC(C)(C)C3C(=O)O)c2ccccc2)C(=O)c2cccc(OC(C)=O)c2OC(C)=O)c1OC(C)=O (centres unmarked) [Example 25, N-[3,9-Bis-(2,3-diacetoxybenzoyl)-3,9-diaza-nonanoyl]-ampicillin] | 0.04 µg/mL (≈ 0.0429 µM) | <0.005 µg/mL | 2.5 µg/mL (≈ 2.68 µM) | 0.02 µg/mL (≈ 0.0215 µM) | 0.16 µg/mL (≈ 0.172 µM) | 0.04 µg/mL (≈ 0.0429 µM) | 0.16 µg/mL (≈ 0.172 µM)
